What was measured:
[1] = tested on: Geobacillus stearothermophilus spores; assay: Resistance of self-contained biological indicators to hydrogen peroxide sterilization, glucosidase enzyme activity fluorescence readout (ENZ+); assay type: cell-based
Protocol: (§1) PET film (.09 mm thick) was coated with colloidal silica as described in International Publication No. WO2014/189716, which is incorporated herein by reference in its entirety. […] Separate aqueous spore coating solutions were prepared as described in Example 1 with the amino acids shown in table 4 present in the coating solutions. Two microliter aliquots (containing at least 10^6 spores) of the respective spore coating solutions were deposited onto the silica-coated PET film, forming a series of spaced-apart spots on the film. The spore coated films were dried in a 60° C. incubator for 12 minutes. Circular discs (hereinafter, “coated carriers”) of the PET film, each disc including one of the dried spots, were punched out and were used to assemble self-contained biological indicators (BI) similar to that shown in FIG. 1 of International Publication No. WO2014/189716. The coated carriers described above were placed into the “spore carrier 135” shown in FIG. 1 of International Publication No. WO2014/189716. Each self-contained BI comprised a polycarbonate outer container, a breaker, a cap, and a cap filter. Disposed inside the outer container were a coated carrier along with an ampoule media containing the nutrient medium from 3M ATTEST 1292 Rapid Readout Biological Indicators plus 5g/L methionine (as described in Example 1).
(§2) The self-contained biological indicators with different concentrations of additives (Table 4) were exposed to hydrogen peroxide sterilization in STERRAD NX sterilizer. The sterilization processes were run by manually injecting 1.0 ml of 59% hydrogen peroxide per load, unless specified otherwise. The exposure time was varied to determine the resistance profile of self-contained BIs with different additive formulations. The BIs were activated by pressing down the cap to break the media ampoule. The activated BIs were placed in a bench-top fluorimeter (3M Company, St. Paul, Minn.) to detect fluorescence.
(§3) A self-contained BI that is not completely inactivated (i.e., not all of the spores are killed by the sterilization process) will resume cellular functions upon activation of the BI. The production of glucosidase enzyme by surviving spores is an indication that at least one of the spores have not been inactivated (killed) by the sterilization process. The glucosidase enzyme cleaves the 4-methylumbelliferyl-glucoside (MUG) releasing the fluorescent methyl umbelliferone, which is detected using a bench-top fluorimeter. Growth and proliferation of spores in the self-contained biological indicator can also be detected by a pH change, which may be detected by a color change of the pH indicator in the growth medium.
(§4) Self-contained biological indicators were prepared (with various additives listed in table 4) as described above in this Example. For each additive tested, a lower range and a higher range was used as a preliminary screen to identify additives modulated the resistance of the spores to the sterilant. Five self-contained BIs representing each condition were exposed to hydrogen peroxide sterilization in STERRAD NX sterilizer. The sterilization processes used a constant injection volume (1.0 ml of 59% hydrogen peroxide) and various times (e.g., 20 seconds to 7 minutes) of exposure to the hydrogen peroxide. The self-contained BIs were activated after exposure to the sterilization process and were monitored for fluorescence using a bench-top fluorimeter) and pH based color change (visually). […]
(§5) Self-contained biological indicators (with various additives listed in table 5) were prepared as described in Example 2. The self-contained biological indicators were exposed to hydrogen peroxide in a STERRAD NX sterilizer as described in Example 2. The self-contained BIs were activated after exposure to the sterilization process and were monitored for fluorescence using a bench-top fluorimeter and pH based color change (visually).

[2] = tested on: Geobacillus stearothermophilus spores; assay: Resistance of self-contained biological indicators to hydrogen peroxide sterilization, growth readout by pH colour change (GRO+); assay type: cell-based
Protocol: as §1, §2, §3, §4, §5

[3] = Table 4, modulator 0.01 weight percent in spore coating solution, H2O2 exposure 30 sec.
[4] = Table 4, modulator 0.01 weight percent in spore coating solution, H2O2 exposure 60 sec.
[5] = Table 4, modulator 0.01 weight percent in spore coating solution, H2O2 exposure 90 sec.
[6] = Table 4, modulator 0.01 weight percent in spore coating solution, H2O2 exposure 3 min.
[7] = Table 4, modulator 0.01 weight percent in spore coating solution, H2O2 exposure 7 min.
[8] = Table 4, modulator 0.1 weight percent in spore coating solution, H2O2 exposure 30 sec.
[9] = Table 4, modulator 0.1 weight percent in spore coating solution, H2O2 exposure 60 sec.
[10] = Table 4, modulator 0.1 weight percent in spore coating solution, H2O2 exposure 90 sec.
[11] = Table 4, modulator 0.1 weight percent in spore coating solution, H2O2 exposure 3 min.
[12] = Table 4, modulator 0.1 weight percent in spore coating solution, H2O2 exposure 7 min.
[13] = Table 5, modulator 0.05 weight percent in spore coating solution, H2O2 exposure 20 sec.
[14] = Table 5, modulator 0.05 weight percent in spore coating solution, H2O2 exposure 30 sec.
[15] = Table 5, modulator 0.05 weight percent in spore coating solution, H2O2 exposure 60 sec.
[16] = Table 5, modulator 0.05 weight percent in spore coating solution, H2O2 exposure 90 sec.
[17] = Table 5, modulator 0.05 weight percent in spore coating solution, H2O2 exposure 3 min.
[18] = Table 5, modulator 0.05 weight percent in spore coating solution, H2O2 exposure 7 min.
[19] = Table 5, modulator 0.1 weight percent in spore coating solution, H2O2 exposure 20 sec.
[20] = Table 5, modulator 0.1 weight percent in spore coating solution, H2O2 exposure 30 sec.
[21] = Table 5, modulator 0.1 weight percent in spore coating solution, H2O2 exposure 60 sec.
[22] = Table 5, modulator 0.1 weight percent in spore coating solution, H2O2 exposure 90 sec.
[23] = Table 5, modulator 0.1 weight percent in spore coating solution, H2O2 exposure 3 min.
[24] = Table 5, modulator 0.1 weight percent in spore coating solution, H2O2 exposure 7 min.
[25] = Table 5, modulator 0.2 weight percent in spore coating solution, H2O2 exposure 20 sec.
[26] = Table 5, modulator 0.2 weight percent in spore coating solution, H2O2 exposure 30 sec.
[27] = Table 5, modulator 0.2 weight percent in spore coating solution, H2O2 exposure 60 sec.
[28] = Table 5, modulator 0.2 weight percent in spore coating solution, H2O2 exposure 90 sec.
[29] = Table 5, modulator 0.2 weight percent in spore coating solution, H2O2 exposure 3 min.
[30] = Table 5, modulator 0.2 weight percent in spore coating solution, H2O2 exposure 7 min.
[31] = Table 5, modulator 0.4 weight percent in spore coating solution, H2O2 exposure 20 sec.
[32] = Table 5, modulator 0.4 weight percent in spore coating solution, H2O2 exposure 30 sec.
[33] = Table 5, modulator 0.4 weight percent in spore coating solution, H2O2 exposure 60 sec.
[34] = Table 5, modulator 0.4 weight percent in spore coating solution, H2O2 exposure 90 sec.
[35] = Table 5, modulator 0.4 weight percent in spore coating solution, H2O2 exposure 3 min.
[36] = Table 5, modulator 0.4 weight percent in spore coating solution, H2O2 exposure 7 min.
[37] = Table 5, modulator 0.8 weight percent in spore coating solution, H2O2 exposure 20 sec.
[38] = Table 5, modulator 0.8 weight percent in spore coating solution, H2O2 exposure 30 sec.
[39] = Table 5, modulator 0.8 weight percent in spore coating solution, H2O2 exposure 60 sec.
[40] = Table 5, modulator 0.8 weight percent in spore coating solution, H2O2 exposure 90 sec.
[41] = Table 5, modulator 0.8 weight percent in spore coating solution, H2O2 exposure 3 min.
[42] = Table 5, modulator 0.8 weight percent in spore coating solution, H2O2 exposure 7 min.

SMILES: N[C@@H](Cc1c[nH]cn1)C(=O)O [L-histidine]
- percentage of self-contained biological indicators positive for glucosidase enzyme activity (ENZ+) [1, 3]: 100%
- percentage of self-contained biological indicators positive for glucosidase enzyme activity (ENZ+) [1, 4]: 80%
- percentage of self-contained biological indicators positive for glucosidase enzyme activity (ENZ+) [1, 5]: 0%
- percentage of self-contained biological indicators positive for glucosidase enzyme activity (ENZ+) [1, 6]: 0%
- percentage of self-contained biological indicators positive for glucosidase enzyme activity (ENZ+) [1, 7]: 0%
- percentage of self-contained biological indicators positive for glucosidase enzyme activity (ENZ+) [1, 8]: 100%
- percentage of self-contained biological indicators positive for glucosidase enzyme activity (ENZ+) [1, 9]: 10%
- percentage of self-contained biological indicators positive for glucosidase enzyme activity (ENZ+) [1, 10]: 0%
- percentage of self-contained biological indicators positive for glucosidase enzyme activity (ENZ+) [1, 11]: 0%
- percentage of self-contained biological indicators positive for glucosidase enzyme activity (ENZ+) [1, 12]: 0%
- percentage of self-contained biological indicators positive for glucosidase enzyme activity (ENZ+) [1, 13]: 100%
- percentage of self-contained biological indicators positive for glucosidase enzyme activity (ENZ+) [1, 14]: 100%
- percentage of self-contained biological indicators positive for glucosidase enzyme activity (ENZ+) [1, 15]: 0%
- percentage of self-contained biological indicators positive for glucosidase enzyme activity (ENZ+) [1, 16]: 0%
- percentage of self-contained biological indicators positive for glucosidase enzyme activity (ENZ+) [1, 17]: 0%
- percentage of self-contained biological indicators positive for glucosidase enzyme activity (ENZ+) [1, 18]: 0%
- percentage of self-contained biological indicators positive for glucosidase enzyme activity (ENZ+) [1, 19]: 100%
- percentage of self-contained biological indicators positive for glucosidase enzyme activity (ENZ+) [1, 20]: 100%
- percentage of self-contained biological indicators positive for glucosidase enzyme activity (ENZ+) [1, 21]: 67%
- percentage of self-contained biological indicators positive for glucosidase enzyme activity (ENZ+) [1, 22]: 67%
- percentage of self-contained biological indicators positive for glucosidase enzyme activity (ENZ+) [1, 23]: 0%
- percentage of self-contained biological indicators positive for glucosidase enzyme activity (ENZ+) [1, 24]: 0%
- percentage of self-contained biological indicators positive for glucosidase enzyme activity (ENZ+) [1, 25]: 100%
- percentage of self-contained biological indicators positive for glucosidase enzyme activity (ENZ+) [1, 26]: 100%
- percentage of self-contained biological indicators positive for glucosidase enzyme activity (ENZ+) [1, 27]: 33%
- percentage of self-contained biological indicators positive for glucosidase enzyme activity (ENZ+) [1, 28]: 67%
- percentage of self-contained biological indicators positive for glucosidase enzyme activity (ENZ+) [1, 29]: 0%
- percentage of self-contained biological indicators positive for glucosidase enzyme activity (ENZ+) [1, 30]: 0%
- percentage of self-contained biological indicators positive for glucosidase enzyme activity (ENZ+) [1, 31]: 100%
- percentage of self-contained biological indicators positive for glucosidase enzyme activity (ENZ+) [1, 32]: 100%
- percentage of self-contained biological indicators positive for glucosidase enzyme activity (ENZ+) [1, 33]: 0%
- percentage of self-contained biological indicators positive for glucosidase enzyme activity (ENZ+) [1, 34]: 33%
- percentage of self-contained biological indicators positive for glucosidase enzyme activity (ENZ+) [1, 35]: 0%
- percentage of self-contained biological indicators positive for glucosidase enzyme activity (ENZ+) [1, 36]: 0%
- percentage of self-contained biological indicators positive for glucosidase enzyme activity (ENZ+) [1, 37]: 100%
- percentage of self-contained biological indicators positive for glucosidase enzyme activity (ENZ+) [1, 38]: 100%
- percentage of self-contained biological indicators positive for glucosidase enzyme activity (ENZ+) [1, 39]: 0%
- percentage of self-contained biological indicators positive for glucosidase enzyme activity (ENZ+) [1, 40]: 67%
- percentage of self-contained biological indicators positive for glucosidase enzyme activity (ENZ+) [1, 41]: 0%
- percentage of self-contained biological indicators positive for glucosidase enzyme activity (ENZ+) [1, 42]: 0%
- sensitivity of the biological indicator to the sterilization process relative to the control with no additives ([2]; Example 2 / Comparative Example 1 (Table 4), fluorescence and growth readouts): increased sensitivity (decreased resistance)
- sensitivity of the spores to the damaging/lethal effects of the sterilization process relative to the control with no additives ([2]; Example 3 (Table 5), fluorescence and growth readouts): increased sensitivity
- percentage of self-contained biological indicators positive for growth (GRO+) [2, 3]: 80%
- percentage of self-contained biological indicators positive for growth (GRO+) [2, 4]: 0%
- percentage of self-contained biological indicators positive for growth (GRO+) [2, 5]: 0%
- percentage of self-contained biological indicators positive for growth (GRO+) [2, 6]: 0%
- percentage of self-contained biological indicators positive for growth (GRO+) [2, 7]: 0%
- percentage of self-contained biological indicators positive for growth (GRO+) [2, 8]: 0%
- percentage of self-contained biological indicators positive for growth (GRO+) [2, 9]: 0%
- percentage of self-contained biological indicators positive for growth (GRO+) [2, 10]: 0%
- percentage of self-contained biological indicators positive for growth (GRO+) [2, 11]: 0%
- percentage of self-contained biological indicators positive for growth (GRO+) [2, 12]: 0%
- percentage of self-contained biological indicators positive for growth (GRO+) [2, 13]: 100%
- percentage of self-contained biological indicators positive for growth (GRO+) [2, 14]: 100%
- percentage of self-contained biological indicators positive for growth (GRO+) [2, 15]: 0%
- percentage of self-contained biological indicators positive for growth (GRO+) [2, 16]: 0%
- percentage of self-contained biological indicators positive for growth (GRO+) [2, 17]: 0%
- percentage of self-contained biological indicators positive for growth (GRO+) [2, 18]: 0%
- percentage of self-contained biological indicators positive for growth (GRO+) [2, 19]: 100%
- percentage of self-contained biological indicators positive for growth (GRO+) [2, 20]: 33%
- percentage of self-contained biological indicators positive for growth (GRO+) [2, 21]: 0%
- percentage of self-contained biological indicators positive for growth (GRO+) [2, 22]: 0%
- percentage of self-contained biological indicators positive for growth (GRO+) [2, 23]: 0%
- percentage of self-contained biological indicators positive for growth (GRO+) [2, 24]: 0%
- percentage of self-contained biological indicators positive for growth (GRO+) [2, 25]: 100%
- percentage of self-contained biological indicators positive for growth (GRO+) [2, 26]: 0%
- percentage of self-contained biological indicators positive for growth (GRO+) [2, 27]: 0%
- percentage of self-contained biological indicators positive for growth (GRO+) [2, 28]: 0%
- percentage of self-contained biological indicators positive for growth (GRO+) [2, 29]: 0%
- percentage of self-contained biological indicators positive for growth (GRO+) [2, 30]: 0%
- percentage of self-contained biological indicators positive for growth (GRO+) [2, 31]: 100%
- percentage of self-contained biological indicators positive for growth (GRO+) [2, 32]: 0%
- percentage of self-contained biological indicators positive for growth (GRO+) [2, 33]: 0%
- percentage of self-contained biological indicators positive for growth (GRO+) [2, 34]: 0%
- percentage of self-contained biological indicators positive for growth (GRO+) [2, 35]: 0%
- percentage of self-contained biological indicators positive for growth (GRO+) [2, 36]: 0%
- percentage of self-contained biological indicators positive for growth (GRO+) [2, 37]: 33%
- percentage of self-contained biological indicators positive for growth (GRO+) [2, 38]: 0%
- percentage of self-contained biological indicators positive for growth (GRO+) [2, 39]: 0%
- percentage of self-contained biological indicators positive for growth (GRO+) [2, 40]: 0%
- percentage of self-contained biological indicators positive for growth (GRO+) [2, 41]: 0%
- percentage of self-contained biological indicators positive for growth (GRO+) [2, 42]: 0%
